Source: ChEMBL document CHEMBL3600314, “Discovery and characterization of a potent and selective EP4 receptor antagonist” (Bioorg Med Chem Lett, 2015)
Calls of active or inactive are those of the source. No cut-off for these calls is given here.

Tests used:
[1] = biological target: T1, Prostaglandin E2 receptor EP4 subtype (Homo sapiens, UniProt P35408); assay: Displacement of [3H]-PGE2 from recombinant human EP4 receptor expressed in HEK293 cell membranes after 90 mins by liquid scintillation counting analysis
[2] = biological target: T1, Prostaglandin E2 receptor EP4 subtype; assay: Antagonist activity at recombinant human EP4 receptor expressed in HEK293 cells assessed as inhibition of PGE2-stimulated cAMP accumulation by scintillation proximity assay in presence of [125I]-cAMP; type: functional, cell-based
[3] = biological target: T1, Prostaglandin E2 receptor EP4 subtype; assay: Antagonist activity at EP4 receptor in LPS-stimulated human whole blood assessed as inhibition of PGE2-induced TNF-alpha reduction preincubated for 30 mins followed by PGE2 addition measured after 24 hrs by ELISA
Cytochrome P450 2B6 = Cytochrome P450 2B6 (Homo sapiens, UniProt P20813); assay: Inhibition of CYP2B6 (unknown origin); type: ADME
Cytochrome P450 3A4 = Cytochrome P450 3A4 (Homo sapiens, UniProt P08684); assay: Inhibition of CYP3A4 (unknown origin); type: ADME
[4] = biological target: T2, Prostaglandin E2 receptor EP2 subtype (Homo sapiens, UniProt P43116); assay: Agonist activity at recombinant human EP2 receptor expressed in CHO cells assessed as induction of cAMP accumulation at 1 uM after 15 mins by scintillation proximity assay in presence of [125I]-cAMP; type: functional, cell-based
Cytochrome P450 2C19 = Cytochrome P450 2C19 (Homo sapiens, UniProt P33261); assay: Inhibition of CYP2C19 (unknown origin); type: ADME
[5] = biological target: T2, Prostaglandin E2 receptor EP2 subtype; assay: Displacement of [3H]-PGE2 from human EP2 receptor by liquid scintillation counting analysis
Cytochrome P450 2C8 = Cytochrome P450 2C8 (Homo sapiens, UniProt P10632); assay: Inhibition of CYP2C8 (unknown origin); type: ADME
[6] = biological target: Histamine H1 receptor (Homo sapiens) (UniProt P35367); assay: Inhibition of human histamine H1 receptor at 10 uM relative to control
[7] = Clearance in Beagle dog at 10 mg/kg, po and 1 mg/kg, iv; type: ADME, organism-based, Canis lupus familiaris; conditions: in vivo
[8] = biological target: Muscarinic acetylcholine receptor M3 (Homo sapiens) (UniProt P20309); assay: Inhibition of human muscarinic M3 receptor at 10 uM relative to control
[9] = biological target: Muscarinic acetylcholine receptor M2 (Homo sapiens) (UniProt P08172); assay: Inhibition of human muscarinic M2 receptor at 10 uM relative to control
[10] = biological target: Adrenergic receptor alpha-1 (Rattus norvegicus) (UniProt P15823+P23944+P43140); assay: Inhibition of rat adrenergic alpha1 receptor at 10 uM relative to control
[11] = Solubility of the compound in SGF; type: physicochemical
[12] = Solubility of the compound in FedSIF; type: physicochemical; conditions: FeSSIF
[13] = biological target: Prostaglandin E2 receptor EP1 subtype (Homo sapiens, UniProt P34995); assay: Displacement of [3H]-PGE2 from human EP1 receptor by liquid scintillation counting analysis
Cytochrome P450 2C9 = Cytochrome P450 2C9 (Homo sapiens, UniProt P11712); assay: Inhibition of CYP2C9 (unknown origin); type: ADME
[14] = biological target: L-type calcium channel dihydropyridine binding site (Homo sapiens, UniProt O60840+Q01668+Q13698+Q13936); assay: Inhibition of L-type calcium channel dihydropyridine binding site (unknown origin) at 10 uM relative to control; type: protein assay
[15] = biological target: Beta-2 adrenergic receptor (Homo sapiens) (UniProt P07550); assay: Inhibition of human adrenergic beta2 receptor at 10 uM relative to control
[16] = biological target: L-type calcium channel verapamil binding site (Homo sapiens, UniProt O60840+Q01668+Q13698+Q13936); assay: Inhibition of L-type calcium channel verapamil binding site (unknown origin) at 10 uM relative to control; type: protein assay
[17] = Solubility of the compound in FasSIF; type: physicochemical
[18] = biological target: D(1A) dopamine receptor (Homo sapiens) (UniProt P21728); assay: Inhibition of human dopamine D1 receptor at 10 uM relative to control
[19] = biological target: 5-hydroxytryptamine receptor 2B (Homo sapiens) (UniProt P41595); assay: Inhibition of human 5-HT2B receptor at 10 uM relative to control
[20] = Oral bioavailability in Beagle dog at 10 mg/kg; type: ADME, organism-based, Canis lupus familiaris; conditions: in vivo
[21] = biological target: Sodium-dependent noradrenaline transporter (Homo sapiens) (UniProt P23975); assay: Inhibition of human NE transporter at 10 uM relative to control
[22] = biological target: Prostaglandin E2 receptor EP3 subtype (Homo sapiens, UniProt P43115); assay: Displacement of [3H]-PGE2 from human EP3 receptor by liquid scintillation counting analysis
[23] = biological target: Prostaglandin E synthase (Homo sapiens) (UniProt O14684); assay: Inhibition of microsomal PGES-1 (unknown origin) up to 62.5 uM
Cytochrome P450 2D6 = Cytochrome P450 2D6 (Homo sapiens, UniProt P10635); assay: Inhibition of CYP2D6 (unknown origin); type: ADME
[24] = biological target: Adenosine receptor A3 (Homo sapiens) (UniProt P0DMS8); assay: Inhibition of human adenosine A3 receptor at 10 uM relative to control
Rattus norvegicus = species: Rattus norvegicus; assay: Inhibition of rat chloride channel at 10 uM relative to control
Cytochrome P450 1A2 = Cytochrome P450 1A2 (Homo sapiens, UniProt P05177); assay: Inhibition of CYP1A2 (unknown origin); type: ADME
[25] = Plasma concentration in Beagle dog at 10 mg/kg, po measured over 24 hrs; type: ADME, organism-based, Canis lupus familiaris
[26] = biological target: Beta-1 adrenergic receptor (Homo sapiens) (UniProt P08588); assay: Inhibition of human adrenergic beta1 receptor at 10 uM relative to control
[27] = biological target: D(2) dopamine receptor (Homo sapiens) (UniProt P14416); assay: Inhibition of human dopamine D2S receptor at 10 uM relative to control
[28] = biological target: L-type calcium channel diltiazem binding site (Homo sapiens, UniProt O60840+Q01668+Q13698+Q13936); assay: Inhibition of L-type calcium channel diltiazem binding site (unknown origin) at 10 uM relative to control; type: protein assay
[29] = biological target: Mu-type opioid receptor (Homo sapiens) (UniProt P35372); assay: Inhibition of human mu opioid receptor at 10 uM relative to control
[30] = biological target: Adrenergic receptor alpha-2 (Rattus norvegicus) (UniProt P22086+P19328+P22909); assay: Inhibition of rat adrenergic alpha2 receptor at 10 uM relative to control
[31] = biological target: T2, Prostaglandin E2 receptor EP2 subtype; assay: Antagonist activity at recombinant human EP2 receptor expressed in CHO cells assessed as inhibition of PGE2-stimulated cAMP accumulation at 1 uM by scintillation proximity assay in presence of [125I]-cAMP; type: functional, cell-based
[32] = Plasma concentration in Beagle dog at 10 mg/kg, po measured over 12 hrs; type: ADME, organism-based, Canis lupus familiaris
[33] = Tmax in Beagle dog at 10 mg/kg, po; type: ADME, organism-based, Canis lupus familiaris; conditions: in vivo
[34] = biological target: Voltage-gated inwardly rectifying potassium channel KCNH2 (Homo sapiens, UniProt Q12809); assay: Displacement of [3H]-astemizole from human ERG up to 100 uM
Sequence of Voltage-gated inwardly rectifying potassium channel KCNH2 (Q12809 whole entry): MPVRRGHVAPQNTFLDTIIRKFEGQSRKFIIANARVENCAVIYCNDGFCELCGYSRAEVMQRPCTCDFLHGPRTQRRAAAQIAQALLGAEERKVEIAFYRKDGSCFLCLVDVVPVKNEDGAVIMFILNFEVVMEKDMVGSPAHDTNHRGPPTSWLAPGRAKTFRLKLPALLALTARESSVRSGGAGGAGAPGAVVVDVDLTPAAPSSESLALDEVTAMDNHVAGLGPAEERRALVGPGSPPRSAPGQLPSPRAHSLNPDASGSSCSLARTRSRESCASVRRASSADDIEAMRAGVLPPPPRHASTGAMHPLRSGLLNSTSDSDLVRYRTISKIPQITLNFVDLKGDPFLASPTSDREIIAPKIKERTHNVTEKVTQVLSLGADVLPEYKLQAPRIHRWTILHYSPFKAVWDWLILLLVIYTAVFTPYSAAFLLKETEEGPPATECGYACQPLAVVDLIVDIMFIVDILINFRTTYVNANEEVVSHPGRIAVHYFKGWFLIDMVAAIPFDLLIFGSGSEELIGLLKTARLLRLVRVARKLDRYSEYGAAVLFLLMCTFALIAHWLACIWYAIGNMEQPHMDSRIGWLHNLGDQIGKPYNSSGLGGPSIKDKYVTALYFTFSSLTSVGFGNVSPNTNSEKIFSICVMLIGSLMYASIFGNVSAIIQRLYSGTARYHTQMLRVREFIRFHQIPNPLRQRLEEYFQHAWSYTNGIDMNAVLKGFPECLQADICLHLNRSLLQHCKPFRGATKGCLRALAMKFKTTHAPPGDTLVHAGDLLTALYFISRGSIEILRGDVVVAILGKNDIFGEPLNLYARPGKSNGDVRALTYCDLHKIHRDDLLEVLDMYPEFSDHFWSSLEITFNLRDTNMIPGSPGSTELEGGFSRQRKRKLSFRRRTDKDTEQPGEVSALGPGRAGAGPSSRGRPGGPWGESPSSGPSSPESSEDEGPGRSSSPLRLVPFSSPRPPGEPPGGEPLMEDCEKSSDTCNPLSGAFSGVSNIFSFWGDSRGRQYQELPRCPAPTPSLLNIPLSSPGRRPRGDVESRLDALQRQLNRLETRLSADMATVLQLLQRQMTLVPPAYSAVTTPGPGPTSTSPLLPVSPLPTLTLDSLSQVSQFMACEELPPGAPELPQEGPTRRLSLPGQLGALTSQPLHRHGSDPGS

T1 sequence (P35408 whole entry): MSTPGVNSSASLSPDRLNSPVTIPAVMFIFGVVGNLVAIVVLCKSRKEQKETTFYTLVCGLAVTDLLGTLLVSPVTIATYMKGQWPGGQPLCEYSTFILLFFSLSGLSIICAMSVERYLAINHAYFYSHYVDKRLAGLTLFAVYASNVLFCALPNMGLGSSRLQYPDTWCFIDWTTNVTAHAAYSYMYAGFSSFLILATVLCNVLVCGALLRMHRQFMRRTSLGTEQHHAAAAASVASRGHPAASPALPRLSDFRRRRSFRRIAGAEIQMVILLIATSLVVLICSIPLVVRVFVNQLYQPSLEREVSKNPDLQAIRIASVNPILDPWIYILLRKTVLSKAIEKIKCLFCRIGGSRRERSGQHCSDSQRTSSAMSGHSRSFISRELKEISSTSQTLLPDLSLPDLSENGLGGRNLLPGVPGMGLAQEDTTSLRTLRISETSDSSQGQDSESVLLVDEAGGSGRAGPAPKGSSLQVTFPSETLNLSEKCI
T2 sequence (P43116 whole entry): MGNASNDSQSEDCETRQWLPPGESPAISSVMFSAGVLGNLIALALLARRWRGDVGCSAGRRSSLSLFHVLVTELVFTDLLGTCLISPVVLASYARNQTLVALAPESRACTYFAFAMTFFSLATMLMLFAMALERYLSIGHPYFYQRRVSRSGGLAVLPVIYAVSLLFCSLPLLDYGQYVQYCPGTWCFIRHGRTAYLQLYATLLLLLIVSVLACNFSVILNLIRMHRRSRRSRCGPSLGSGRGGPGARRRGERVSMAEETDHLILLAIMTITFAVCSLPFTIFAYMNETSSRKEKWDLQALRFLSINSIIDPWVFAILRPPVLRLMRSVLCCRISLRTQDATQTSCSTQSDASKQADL
Sequence of Prostaglandin E2 receptor EP1 subtype (P34995 whole entry): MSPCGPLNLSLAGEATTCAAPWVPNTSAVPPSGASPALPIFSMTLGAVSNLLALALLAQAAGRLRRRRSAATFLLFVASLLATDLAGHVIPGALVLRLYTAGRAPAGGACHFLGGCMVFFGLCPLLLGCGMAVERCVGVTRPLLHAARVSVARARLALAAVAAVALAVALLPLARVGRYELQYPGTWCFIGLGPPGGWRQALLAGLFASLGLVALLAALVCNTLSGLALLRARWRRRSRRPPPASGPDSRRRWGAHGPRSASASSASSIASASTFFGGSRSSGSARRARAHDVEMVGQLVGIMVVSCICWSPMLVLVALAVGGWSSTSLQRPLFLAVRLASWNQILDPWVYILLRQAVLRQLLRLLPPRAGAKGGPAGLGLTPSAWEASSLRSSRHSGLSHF
Sequence of Prostaglandin E2 receptor EP3 subtype (P43115 whole entry): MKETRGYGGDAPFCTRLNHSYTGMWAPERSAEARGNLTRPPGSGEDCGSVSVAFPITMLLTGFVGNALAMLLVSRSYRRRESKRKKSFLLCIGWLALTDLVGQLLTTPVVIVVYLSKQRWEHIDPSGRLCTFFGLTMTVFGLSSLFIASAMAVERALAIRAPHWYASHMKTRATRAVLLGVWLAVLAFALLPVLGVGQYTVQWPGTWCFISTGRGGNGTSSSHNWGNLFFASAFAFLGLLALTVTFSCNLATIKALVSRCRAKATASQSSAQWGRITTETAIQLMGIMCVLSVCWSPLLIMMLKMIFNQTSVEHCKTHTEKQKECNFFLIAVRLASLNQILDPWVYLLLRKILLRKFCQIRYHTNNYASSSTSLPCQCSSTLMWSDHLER
Sequence of D(1A) dopamine receptor (Homo sapiens) (P21728 whole entry): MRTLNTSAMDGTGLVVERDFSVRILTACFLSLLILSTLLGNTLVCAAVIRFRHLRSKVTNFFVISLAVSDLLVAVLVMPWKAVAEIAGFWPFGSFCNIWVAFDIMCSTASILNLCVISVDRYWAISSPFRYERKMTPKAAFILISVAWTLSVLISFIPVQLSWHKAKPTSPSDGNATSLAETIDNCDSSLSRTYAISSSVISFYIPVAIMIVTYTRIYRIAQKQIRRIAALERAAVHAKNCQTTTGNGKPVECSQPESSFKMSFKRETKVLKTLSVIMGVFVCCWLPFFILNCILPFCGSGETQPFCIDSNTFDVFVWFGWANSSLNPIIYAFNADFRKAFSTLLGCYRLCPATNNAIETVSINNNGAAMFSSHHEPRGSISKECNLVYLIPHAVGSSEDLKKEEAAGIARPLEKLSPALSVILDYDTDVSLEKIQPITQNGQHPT
Sequence of Prostaglandin E synthase (Homo sapiens) (O14684 whole entry): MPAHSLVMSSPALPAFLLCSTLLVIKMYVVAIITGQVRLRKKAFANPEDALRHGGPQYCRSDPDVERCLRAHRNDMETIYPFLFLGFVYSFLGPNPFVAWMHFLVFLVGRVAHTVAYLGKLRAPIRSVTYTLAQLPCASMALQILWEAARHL
Sequence of Beta-1 adrenergic receptor (Homo sapiens) (P08588 whole entry, looked up): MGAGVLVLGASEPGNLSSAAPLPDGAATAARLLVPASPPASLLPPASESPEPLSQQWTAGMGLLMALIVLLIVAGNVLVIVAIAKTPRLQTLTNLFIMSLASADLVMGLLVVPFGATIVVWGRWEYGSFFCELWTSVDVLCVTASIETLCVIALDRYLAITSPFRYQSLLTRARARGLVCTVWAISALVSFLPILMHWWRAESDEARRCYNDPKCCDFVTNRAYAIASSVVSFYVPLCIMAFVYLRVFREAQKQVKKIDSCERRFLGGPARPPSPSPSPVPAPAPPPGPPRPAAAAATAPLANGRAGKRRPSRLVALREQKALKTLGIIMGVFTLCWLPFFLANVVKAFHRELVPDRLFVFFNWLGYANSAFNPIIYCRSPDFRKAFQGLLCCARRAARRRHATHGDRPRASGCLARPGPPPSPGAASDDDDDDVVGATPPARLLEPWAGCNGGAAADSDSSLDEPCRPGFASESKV
Sequence of Adenosine receptor A3 (Homo sapiens) (P0DMS8 whole entry): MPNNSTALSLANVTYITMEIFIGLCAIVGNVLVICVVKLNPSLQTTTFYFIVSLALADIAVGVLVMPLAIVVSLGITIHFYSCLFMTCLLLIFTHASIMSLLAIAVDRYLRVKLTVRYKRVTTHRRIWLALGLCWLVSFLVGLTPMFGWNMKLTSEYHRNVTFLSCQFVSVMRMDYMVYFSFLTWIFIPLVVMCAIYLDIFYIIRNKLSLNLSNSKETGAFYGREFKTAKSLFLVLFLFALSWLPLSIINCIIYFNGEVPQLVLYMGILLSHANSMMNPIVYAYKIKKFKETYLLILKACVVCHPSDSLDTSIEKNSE
Sequence of Sodium-dependent noradrenaline transporter (Homo sapiens) (P23975 whole entry): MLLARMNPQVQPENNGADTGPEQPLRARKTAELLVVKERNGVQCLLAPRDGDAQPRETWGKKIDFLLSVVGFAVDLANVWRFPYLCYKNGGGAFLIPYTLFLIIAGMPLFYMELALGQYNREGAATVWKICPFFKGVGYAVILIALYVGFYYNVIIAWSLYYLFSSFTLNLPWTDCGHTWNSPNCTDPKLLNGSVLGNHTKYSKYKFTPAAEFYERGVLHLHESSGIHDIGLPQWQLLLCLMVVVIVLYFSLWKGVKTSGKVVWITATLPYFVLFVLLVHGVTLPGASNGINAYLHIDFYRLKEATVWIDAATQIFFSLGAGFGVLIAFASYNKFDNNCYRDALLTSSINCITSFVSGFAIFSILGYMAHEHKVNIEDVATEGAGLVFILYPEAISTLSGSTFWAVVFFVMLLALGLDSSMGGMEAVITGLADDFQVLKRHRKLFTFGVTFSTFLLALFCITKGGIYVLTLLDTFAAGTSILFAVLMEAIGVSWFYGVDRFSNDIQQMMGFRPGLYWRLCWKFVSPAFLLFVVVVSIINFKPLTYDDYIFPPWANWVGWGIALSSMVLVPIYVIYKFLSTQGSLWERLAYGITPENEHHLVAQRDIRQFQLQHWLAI

`C[C@H](NC(=O)[C@H]1CCCCN1CCOc1ccc(F)cc1)c1ccc(C(=O)O)cc1` gave an IC50 [1] of 0.0718 µM, a Ki [1] of 0.0404 µM and an IC50 [2] of 0.00287 µM. For the same molecule, the IC50 [3] was 0.121 µM.
With `CCc1nc2c(C)nc(C)cc2n1-c1ccc(CCNC(=O)NS(=O)(=O)c2ccc(C)cc2)cc1` [GRAPIPRANT] the IC50 [1] was 0.689 µM and the IC50 [3] was 1.61 µM.
In the case of `O=C(O)c1ccc(C2(NC(=O)[C@H]3CCCCN3CCOc3ccccc3)CC2)cc1`, the IC50 [1] is reported as 0.0778 µM, the Ki [1] is reported as 0.0448 µM and the IC50 [2] is reported as 0.00542 µM. It also gave an IC50 [3] of 0.586 µM.
In the case of `C[C@H](NC(=O)[C@H]1CCCCN1CCOc1ccccc1)c1ccc(C(=O)O)cc1.Cl`, the IC50 (Cytochrome P450 2B6) is reported as > 10 µM, the IC50 (Cytochrome P450 3A4) is reported as > 10 µM and the Activity [4] is reported as “Active”. The IC50 (Cytochrome P450 2C19) was > 10 µM, the IC50 [5] was 1.63 µM and the IC50 (Cytochrome P450 2C8) was > 10 µM. For the same molecule, the inhibition [6] was 7%, the clearance [7] was 0.312 L/h/kg and the inhibition [8] was 7%. It also gave an inhibition [9] of -1%, an inhibition [10] of 1% and a solubility [11] of 1.32 mg/mL. For the same molecule, the solubility [12] was > 2 mg/mL, the IC50 [13] was > 25 µM and the Ki [13] was > 17.5 µM. The IC50 (Cytochrome P450 2C9) was > 10 µM, the inhibition at 10 µM [14] was -60% and the inhibition [15] was 2%. The inhibition at 10 µM [16] was 5%, the solubility [17] was > 2 mg/mL and the inhibition [18] was -6%. The inhibition [19] was 10%, the bioavailability [20] was 81% and the inhibition [21] was 7%. For the same molecule, the IC50 [22] was > 25 µM, the Ki [22] was > 12.7 µM and the inhibition [23] was “inactive”. The IC50 (Cytochrome P450 2D6) was > 10 µM, the inhibition [24] was -9% and the inhibition (Rattus norvegicus) was 6%. For the same molecule, the IC50 (Cytochrome P450 1A2) was > 10 µM, the concentration at 24 h [25] was > 0.1 µM and the inhibition [26] was 6%. The inhibition [27] was 13%, the inhibition at 10 µM [28] was -7% and the inhibition [29] was 1%. For the same molecule, the inhibition [30] was -6%, the inhibition [31] was “Active” and the concentration at 12 h [32] was > 1 µM. The Tmax [33] was 15 min and the “inhibition (INH)” value [34] was “Not Active”.
`O=C(O)c1ccc(CNC(=O)[C@H]2CCCCN2CCOc2ccccc2)cc1` gave an IC50 [1] of 0.203 µM, a Ki [1] of 0.126 µM and an IC50 [2] of 0.0181 µM. For the same molecule, the IC50 [3] was 0.899 µM.
Molecule `C[C@H](NC(=O)[C@H]1CCCCN1CCOc1ccc(C#N)cc1)c1ccc(C(=O)O)cc1` has an IC50 [1] of 0.621 µM, a Ki [1] of 0.372 µM and an IC50 [2] of 0.0358 µM. For the same molecule, the IC50 [3] was 1.21 µM.
Work on `CC[C@H](NC(=O)[C@H]1CCCCN1CCOc1ccccc1)c1ccc(C(=O)O)cc1` yielded an IC50 [1] of 0.232 µM, a Ki [1] of 0.129 µM and an IC50 [2] of 0.0144 µM. For the same molecule, the IC50 [3] was 0.291 µM.
